Key:
[1] = test system: murine malignant mesothelioma cell line AB12; assay: MTT cytotoxicity assay, 72 h, AB12; assay type: cell-based, mouse; settings: exposure time 72 h
[2] = test system: human malignant mesothelioma cell line JU77; assay: MTT cytotoxicity assay, 72 h, JU77; assay type: cell-based; settings: exposure time 72 h
[3] = test system: human malignant mesothelioma cell line LO68; assay: MTT cytotoxicity assay, 72 h, LO68; assay type: cell-based; settings: exposure time 72 h
[4] = test system: patient-derived VMC23 cell line (epithelioid MPM); assay: MTT cytotoxicity assay, 72 h, VMC23; assay type: cell-based, human; settings: exposure time 72 h
Text: Human malignant mesothelioma cancer cell lines JU77 and LO68 were obtained from Cell Bank Australia (Children's Medical Research Institute, Westmead, Australia). Mouse malignant mesothelioma cancer cell line AB12, human nonmalignant mesothelioma cancer cell line Met5A (mesothelial cells), mouse macrophage cell line J774 and human monocytic cell line THP-1 were obtained from American Type Culture Collection (ATCC) (Rockville, MD, USA). Human malignant mesothelioma cell lines VMC23 (epithelial), Meso82 (sarcomatous), Meso92 (biphasic), were kindly provided by Prof. Walter Berger (Medical University of Vienna). All cells except for J774 were cultured in RPMI and J774 cells were cultured in DMEM. Both types of media were supplemented with 10% FBS and 1% penicillin-streptomycin (10,000 U/mL). Cells were grown in tissue culture flasks (75 cm2 and 25 cm2, SPL Life Sciences Co., Ltd., Korea). All cell lines were grown at 37 °C in a humidified atmosphere of 95% air and 5% CO 2 and passaged when they reached 80–90% confluency. All Au stock solutions were prepared in 1% DMSO in the respected medium, ensuring that cell viability was not inhibited.
The cytotoxicity of compounds was determined using an MTT colorimetric test. The cells were harvested from culture flasks by trypsinization and seeded into Cellstar 96 -well microculture plates (Greiner Bio -One) at the seeding density of 6000 cells per well (6 × 10^4 cells/mL). After
the cells were allowed to resume exponential growth for 16 h, they were exposed to drugs at
different concentrations in media for 72 h. The drugs were diluted in a complete medium at the desired concentration added to each well (100 μL) and serially diluted in other wells. After exposure for 72 h, the media was replaced with MTT in media (5 mg/mL, 100 μL/well) and
incubated for an additional 50 min. Subsequently, the medium was aspirated, and the purple formazan crystals formed in viable cells were dissolved in DMSO (100 μL/well). Optical densities were measured at 570 nm using a BioTek Synergy H1 microplate and MultiskanTM SkyHigh plate readers. The quantity of viable cells was expressed in terms of treated/control (T/C) values in comparison to untreated control cells, and 50% inhibitory concentrations (IC 50) were calculated from concentration-effect curves by interpolation. An evaluation was based on means from at least three independent experiments, each comprising three replicat es per

[5] = test system: patient-derived Meso84 cell line (sarcomatoid MPM); assay: MTT cytotoxicity assay, 72 h, Meso84; assay type: cell-based, human; settings: exposure time 72 h
[6] = test system: patient-derived Meso92 cell line (biphasic MPM); assay: MTT cytotoxicity assay, 72 h, Meso92; assay type: cell-based, human; settings: exposure time 72 h
[7] = test system: human nonmalignant mesothelioma cell line Met5A; assay: MTT cytotoxicity assay, 72 h, Met5A; assay type: cell-based; settings: exposure time 72 h
[8] = test system: AB12 cells phagocytosed by J774 macrophages; assay: Phagocytosis assay, flow cytometry; assay type: cell-based, mouse; settings: AB12 treated 100 min at 5 × IC50 (72 h), 16 h with J774 macrophages
Method: page 21: incubated for an additional 50 min. Subsequently, the medium was aspirated, and the purple formazan crystals formed in viable cells were dissolved in DMSO (100 μL/well). Optical densities were measured at 570 nm using a BioTek Synergy H1 microplate and MultiskanTM SkyHigh plate readers. The quantity of viable cells was expressed in terms of treated/control (T/C) values in comparison to untreated control cells, and 50% inhibitory concentrations (IC 50) were calculated from concentration-effect curves by interpolation. An evaluation was based on means from at least three independent experiments, each comprising three […] concentration level. For macrophage analyses, the acute monocytic leukemia -derived THP-1 cell line (ATCC) was used as a model. 1 × 104 THP-1 cells were seeded per well in 96-well plates in RPMI-1640 with 10% FCS and treated for 24 h with 75 nM phorbol 12-myristate 13-acetate (PMA, Sigma- Aldrich) to induce M0 macrophage differentiation. After the differentiation period, PMA was replaced by fresh culture medium to recover for 2h. Afterwards increasing concentrations of 1G, 5A, 5B and 5G were added for a 72-h continuous drug exposure assay. In parallel, the […] were allowed to attach for 24 h. Gold compounds were added to the cells as described for the THP-1 model above. After the incubation period of 72 h, cell viability was determined by an MTT-based assay (EU4U, Biomedica) following the instructions of the manufacturer. DMSO had not impact on the cell viability at the concentrations used. Flow cytometry experiments Phagocytosis assay […] with RPMI, centrifuged (300 × g, 5 min) and labelled with CellTracker Red CMTPX Dye (0.72 μM for 5 × 10^5 cells) at 37°C for 30 minutes in 1 ml of serum -free RPMI. Following S21 page 22: centrifugation of the cells (300 × g, 5 min), 5 ml of fresh RPMI was introduced, and the cells were seeded at a density of 5 x 10^5 cells per well into Cellstar 6-well plates (Greiner Bio-One) (1 ml per well). J774 macrophages (70-80% confluence in a T75 flask) were detached by scraping, centrifuged (300 × g, 5 min). The medium was substituted with 1 ml of DMEM containing CellTracker Green CMFDA (1 μM) and the J774 macrophages were stained at 37°C for 30 minutes. Following centrifugation of the J774 macrophages (300 × g, 5 min), 5 ml of fresh DMEM was introduced, and the macrophages were seeded into a 100 cm2 petri dish (SPL Life Sciences, Korea). After 24 h, the media in AB12 cells was replaced with 1 ml of fresh […] for 100 minutes. After removing the drug-containing media, the cells were trypsinized (0.5 ml), neutralized with 1 ml of RPMI, centrifuged (300 × g, 5 min) and counted. From each sample, […] cells into 6-well plates. AB12 cells and J774 macrophages were co-incubated for 16 h at 37°C and 5% CO2, detached by scraping, centrifuged (300 × g, 5 min), and the pellets were resuspended in PBS for immediate analysis using a CytoFLEX Flow Cytometer (Beckman Coulter, USA). The percentage of phagocytosis was determined by calculating the number of double-positive macrophages (Q2) over the total number of macrophages (Q2 + Q3). […] Annexin V/PI assay AB12 cells were seeded into Cellstar 6-well plates (Greiner Bio-One) at a density of 5 × 10^5 cells/well (1 ml per well). […] The medium was removed and cells were washed with PBS (2 × 1 mL). Afterwards the cells were […] S22

| Structure (SMILES) | IC50 [1] | IC50 [2] | IC50 [3] | IC50 [4] | IC50 [5] | IC50 [6] | IC50 [7] | phagocytosis / ICD response (in words) [8] | IC50 ([1]; Mus musculus) | IC50 ([2]; Homo sapiens) | IC50 ([3]; Homo sapiens) | IC50 ([4]; Homo sapiens) | IC50 ([5]; Homo sapiens) | IC50 ([6]; Homo sapiens) | IC50 ([7]; Homo sapiens, MeT-5A) |
| --- | --- | --- | --- | --- | --- | --- | --- | --- | --- | --- | --- | --- | --- | --- | --- |
| F[P-](F)(F)(F)(F)F.c1cc[c]2c(c1)Nc1cccc[n+]1[Au-]21[S]C(=[N+]2CCCCCC2)[S]1 (stereo not shown) [5G] | 0.33 ± 0.09 µM | 0.22 ± 0.04 µM | 0.43 ± 0.05 µM | 0.73 ± 0.16 µM | 0.3 ± 0.07 µM | 0.35 ± 0.04 µM | 0.25 ± 0.05 µM | substantial phagocytosis | – | – | – | – | – | – | – |
| Nc1nc2[nH]cc(CCc3ccc(C(=O)N[C@@H](CCC(=O)O)C(=O)O)cc3)c2c(=O)[nH]1 [Pemetrexed, pemetrexed, reference compound] | – | – | – | – | – | – | – | failed to initiate any ICD response | 0.023 ± 0.007 µM | 0.073 ± 0.014 µM | 0.094 ± 0.028 µM | 0.17 ± 0.04 µM | 0.027 ± 0.002 µM | 0.14 ± 0.04 µM | 0.3 ± 0.1 µM |

Reference: paper PMC11887451, “Leveraging Immunogenic Cell Death to Enhance the Immune Response against Malignant Pleural Mesothelioma Tumors” (Journal of the American Chemical Society, 2025)
